In US20210221785A1, “AMINO-PYRIMIDONYL DERIVATIVES, A PROCESS FOR THEIR PREPARATION AND PHARMACEUTICAL COMPOSITIONS CONTAINING THEM” (LES LABORATOIRES SERVIER, priority 2018, published 2021):

What was measured:
[1] = target: T1, His-His-USP7 (aa208-560, |C315A|) (Homo sapiens, UniProt Q93009, C315A); assay: Evaluation of the inhibition of USP7 by the Fluorescence Intensity (FLINT) readings; assay type: biochemical; details: 0.25 nM His-His-USP7, compound incubated 60 minutes at 30° C., 500 nM Ubiquitin-Rhodamine-110 substrate; 50% reduction in kinetic rate
T1 construct: His-His-USP7 (aa208-560, |C315A|); His-His (N)
T1 sequence (Q93009 208-560 C315A): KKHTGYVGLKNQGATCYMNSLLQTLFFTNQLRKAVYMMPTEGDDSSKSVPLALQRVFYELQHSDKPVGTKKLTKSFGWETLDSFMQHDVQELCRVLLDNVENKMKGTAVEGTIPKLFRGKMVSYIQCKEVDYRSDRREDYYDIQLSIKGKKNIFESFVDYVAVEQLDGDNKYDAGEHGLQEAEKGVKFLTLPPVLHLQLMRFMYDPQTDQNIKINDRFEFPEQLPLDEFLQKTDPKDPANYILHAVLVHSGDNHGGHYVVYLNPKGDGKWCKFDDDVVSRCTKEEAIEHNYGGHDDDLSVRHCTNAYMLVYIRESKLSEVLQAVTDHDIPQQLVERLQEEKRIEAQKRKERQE
In short: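 0.25 nM His-His-USP7 (aa208–560, C315A) preincubated 60 min at 30 °C with compound in 100 mM Bicine pH 8.0, 0.01% Triton X-100, 1 mM TCEP, 10% DMSO. Reaction started with 500 nM ubiquitin-rhodamine-110 and fluorescence (Ex485/Em535) read every 3 min for 21 min. IC50 derived from kinetic-rate reduction over an 11-point curve, 4-parameter fit.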

[2] = system: Z138 mantle cell lymphoma tumour cell lines; assay: In vitro cytotoxicity, MTT assay; assay type: cell-based; details: Homo sapiens, Z-138, 96 h, Z138 cells exposed to the test compounds for 96 hours; cell viability vs DMSO treated cells
Protocol: The cytotoxicity studies were evaluated by MTT [3-(4,5-dimethylthiazol-2-yl)-2,5-diphenyltetrazolium bromide] assay and carried out on Z138 mantle cell lymphoma tumour cell lines. The cells are distributed onto microplates and exposed to the test compounds for 96 hours. MTT is then added for 4 hours and converted by NAD(P)H-dependent cellular oxidoreductase enzymes in formazan, which has a purple color. The viable cell number is proportional to the production of formuan salts and cell viability can be quantified by the absorbance of the solution at 540 nm with a speetrophotometer (Carmichael et al., Cancer Res. 1987, 47, 936-942).

Row | SMILES | IC50 [1] | IC50 [2]
1 | C#C[C@]1(O)CC[C@@H](C(=O)N2CCC(O)(Cn3cnc(Oc4ccc(F)cc4)c(N)c3=O)CC2)[C@H](c2ccccc2)C1 (relative stereo) [Example 92, rel-5-amino-3-[(1-{[(1R,2R,4S)-4-ethynyl-4-hydroxy-2-phenyl-cyclohexyl]carbonyl}-4-hydroxypiperidin-4-yl)methyl]-6-(4-fluorophenoxy)pyrimidin-4-one] | 230 nM | 0.189 µM
2 | CCc1cc(Oc2ncn(CC3(O)CCN(C(=O)[C@@H]4CCC(F)(F)C[C@H]4c4ccccc4)CC3)c(=O)c2N)ccc1Cl [Example 42, 5-amino-6-(4-chloro-3-ethylphenoxy)-3-({1-[(1R,2R)-4,4-difluoro-2-phenylcyclohexane-1-carbonyl]-4-hydroxypiperidin-4-yl}methyl)pyrimidin-4(3H)-one] | 89.7 nM | 0.169 µM
3 | Nc1c(Oc2ccc3cn[nH]c3c2)ncn(CC2(O)CCN(C(=O)[C@@H]3CCC(F)(F)C[C@H]3c3ccccc3)CC2)c1=O [Example 35, 5-amino-3-({1-[(1R,2R)-4,4-difluoro-2-phenylcyclohexane-1-carbonyl]-4-hydroypiperidin-4-yl}methyl)-6-[(1H-indazol-6-yl)oxy]pyrimidin-4(3H)-one] | 34.2 nM | 0.081 µM
4 | Nc1c(Oc2ccc(CC(F)F)cc2)ncn(CC2(O)CCN(C(=O)[C@@H]3CCC(F)(F)C[C@H]3c3ccccc3)CC2)c1=O [Example 38, 5-amino-6-[4-(2,2-difluoroethyl)phenoxy]-3-({1-[(1R,2R)-4,4-difluoro-2-phenylcyclohexane-1-carbonyl]-4-hydroxypiperidin-4-yl}methyl)pyrimidin-4(3H)-one] | 63.9 nM | 0.128 µM
5 | Nc1c(Oc2ccc(CO)cc2)ncn(CC2(O)CCN(C(=O)[C@@H]3CCC(F)(F)C[C@H]3c3ccccc3)CC2)c1=O [Example 23, 5-amino-3-({1-[(1R,2R)-4,4-difluoro-2-phenylcyclohexane-1-carbonyl]-4-hydroxypiperidin-4-yl}methyl)-6-[4-(hydroymethyl)phenoxy]pyrimidin-4(3H)-one] | 40 nM | 0.22 µM
6 | Nc1c(Oc2cccc(O)c2)ncn(C[C@@]2(O)CCN(C(=O)[C@@H]3CCC(F)(F)C[C@H]3c3ccccc3)CC2(F)F)c1=O [Example 104, 5-amino-3-({(4S)-1-[(1R,2R)-4,4-difluoro-2-phenylcyclohexane-1-carbonyl]-3,3-difluoro-4-hydroxypiperidin-4-yl}methyl)-6-(3-hydroxyphenoxy)pyrimidin-4(3H)-one] | 41 nM | 0.014 µM
7 | Nc1c(Oc2ccc(F)c(CO)c2)ncn(CC2(O)CCN(C(=O)[C@@H]3CCC(F)(F)C[C@H]3c3ccccc3)CC2)c1=O [Example 118, 5-amino-3-({1-[(1R,2R)-4,4-difluoro-2-phenylcyclohexane-1-carbonyl]-4-hydroxypiperidin-4-yl}methyl)-6-[4-fluoro-3-(hydroxymethyl)phenoxy]pyrimidin-4(3H)-one] | 33.1 nM | 0.0413 µM
8 | C#C[C@@]1(F)CC[C@@H](C(=O)N2CCC(O)(Cn3cnc(Oc4ccc(F)cc4)c(N)c3=O)CC2)[C@H](c2ccccc2)C1 [Example 123, 5-amino-3-({1-[(1R,2R,4R)-4-ethynyl-4-fluoro-2-phenylcyclohexanecarbonyl]-4-hydroxypiperidin-4-yl}methyl)-6-(4-fluorophenoxy)-3,4-dihydropyrimidin-4-one] | 35.4 nM | 0.0466 µM
9 | Nc1c(Oc2ccccc2)ncn(CC2(O)CCN(C(=O)[C@@H]3CCC(F)(F)C[C@H]3c3ccccc3)CC2)c1=O [Example 1, 5-amino-3-({1-[(1R,2R)-4,4-difluoro-2-phenylcyclohexane-1-carbonyl]-4-hydroxypiperidin-4-yl}methyl)-6-phenoxypyrimidin-4(3H)-one] | 43.7 nM | 0.0866 µM
10 | Nc1c(Oc2cccc(Br)c2)ncn(CC2(O)CCN(C(=O)[C@@H]3CCC(F)(F)C[C@H]3c3ccccc3)CC2)c1=O [Example 20, 5-amino-6-(3-bromophenoxy)-3-([1-{(1R,2R)-4,4-difluoro-2-phenylcyclohexane-1-carbonyl]-4-hydroxypiperidin-4-yl}methyl)pyrimidin-4(3H)-one] | 105 nM | 0.146 µM
11 | Nc1cc(Oc2ncn(CC3(O)CCN(C(=O)[C@@H]4CCC(F)(F)C[C@H]4c4ccccc4)CC3)c(=O)c2N)ccc1F [Example 119, 5-amino-6-(3-amino-4-fluorophenoxy)-3-({1-[(1R,2R)-4,4-difluoro-2-phenylcyclohexane-1-carbonyl]-4-hydroxypiperidin-4-yl}methyl)pyrimidin-4(3H)-one] | 38 nM | 0.0613 µM
12 | Nc1c(Oc2cccc(C3CNCCO3)c2)ncn(CC2(O)CCN(C(=O)[C@@H]3CCC(F)(F)C[C@H]3c3ccccc3)CC2)c1=O (stereo partly drawn) [Example 115, 5-amino-3-([1-[(1R,2R)-4,4-difluoro-2-phenylcyclohexane-1-carbonyl]-4-hydroxypiperidin-4-yl]methyl)-6-[3-(morpholin-2-yl)phenoxy]pyrimidin-4(3H)-one] | 37.2 nM | 0.85 µM

More lines, main results first:

Row | IC50 [1] | SMILES | IC50 [2]
13 | 3.48 nM | Nc1c(Oc2ccc(F)cc2)ncn(C[C@@]2(O)CCN(C(=O)[C@@H]3CC[C@](F)(C#Cc4cccnn4)C[C@H]3c3ccccc3)CC2(F)F)c1=O [Example 168, 5-amino-3-{[(4S)-3,3-difluoro-1-{[(1R,2R,4R)-4-fluoro-2-phenyl-4-[2-(pyridazin-3-yl)ethynyl]cyclohexyl]carbonyl}-4-hydroxypiperidin-4-yl]methyl}-6-(4-fluorophenoxy)pyrimidin-4-one] | 0.00157 µM
14 | 80.7 nM | Nc1c(Oc2ccc(F)cc2)ncn(CC2(O)CCN(C(=O)[C@@H]3CC[C@@](F)(C#Cc4ccc(F)cn4)C[C@H]3c3ccccc3)CC2)c1=O [Example 134, 5-amino-3-[(1-{[(1R,2R,4S)-4-fluoro-4-[2-(5-fluoropyridin-2-yl)ethynyl]-2-phenylcyclohexyl]carbonyl}-4-hydroxypiperidin-4-yl)methyl]-6-(4-fluorophenoxy)pyrimidin-4-one] | 0.0309 µM
15 | 124 nM | CO[C@@]1(C#Cc2cccnn2)CC[C@@H](C(=O)N2CCC(O)(Cn3cnc(Oc4ccc(F)cc4)c(N)c3=O)CC2)[C@H](c2ccccc2)C1 [Example 147, 5-amino-6-(4-fluorophenoxy)-3-[(4-hydroxy-1-{[(1R,2R,4S)-4-methoxy-2-phenyl-4-[2-(pyridazin-3-yl)ethynyl]cyclohexyl]carbonyl}piperidin-4-yl)methyl]pyrimidin-4-one] | 0.199 µM
16 | 27.2 nM | Nc1c(Oc2ccc(F)cc2)ncn(C[C@@]2(O)CCN(C(=O)[C@@H]3CC[C@](F)(C#Cc4ncccn4)C[C@H]3c3ccccc3)CC2(F)F)c1=O [Example 167, 5-amino-3-{[(4S)-3,3-difluoro-1-[(1R,2R,4R)-4-fluoro-2-phenyl-4-[2-(pyrimidin-2-yl)ethynyl]cyclohexanecarbonyl]-4-hydroxypiperldin-4-yl]methyl}-6-(4-fluorophenoxy)-3,4-dihydropyrimidin-4-one] | 0.0124 µM
17 | 56.5 nM | Nc1c(Oc2ccc(F)cc2)ncn(CC2(O)CCN(C(=O)[C@@H]3CC=C(C#Cc4ncccn4)C[C@H]3c3ccccc3)CC2)c1=O [Example 143, 5-amino-6-(4-fluorophenoxy)-3-[(4-hydroxy-1-{[(1R,6R)-6-phenyl-4-[2-(pyrimidin-2-yl)ethynyl]cyclohex-3-en-1-yl]carbonyl}piperidin-4-yl)methyl]pyrimidin-4-one] | 0.0787 µM
18 | 89.6 nM | Nc1c(Oc2ccc(F)cc2)ncn(CC2(O)CCN(C(=O)[C@@H]3CCC(F)(C#CC4CC4)C[C@H]3c3ccccc3)CC2)c1=O (relative stereo) [Example 124, rel-5-amino-3-[(1 -{[(1R,2 R)-4-(2-cyclopropylethynyl)-4-fluoro-2-phenylcyclohexyl]carbonyl}-4-hydroxypiperidin-4-yl)methyl]-6-(4-fluorophenoxy)pyrimidin-1-one] | 0.236 µM
19 | 23.8 nM | Cc1ccnnc1C#C[C@@]1(F)CC[C@@H](C(=O)N2CC[C@](O)(Cn3cnc(Oc4ccc(F)cc4)c(N)c3=O)C(F)(F)C2)[C@H](c2ccccc2)C1 [Example 171, 5-amino-3-{[(4S)-3,3-difluoro-1-[(1R,2R,4R)-4-fluoro-4-[2-(4-methylpyridazin-3-yl)ethynyl]-2-phenylcyclohexanecarbonyl]-4-hydroxypiperidin-4-yl]methyl}-6-(4-fluorophenoxy)-3,4-dihydropyrimidin-4-one] | 0.0168 µM
20 | 30.3 nM | Cn1ccnc1C#C[C@]1(F)CC[C@@H](C(=O)N2CCC(O)(Cn3cnc(Oc4ccc(F)cc4)c(N)c3=O)CC2)[C@H](c2ccccc2)C1 [Example 152] | 0.268 µM
21 | 37.1 nM | Nc1c(Oc2ccc(F)cc2)ncn(CC2(O)CCN(C(=O)[C@@H]3CC[C@](F)(C#Cc4nccnc4Cl)C[C@H]3c3ccccc3)CC2)c1=O [Example 153, 5-amino-3-({1-[(1R,2R,4R)-4-[2-(3-chloropyrazin-2-yl)ethynyl]-4-fluoro-2-phenylcyclohexanecarbonyl]-4-hydroxypiperidin-4-yl}methyl)-6-(4-fluorophenoxy)-3,4-dihydropyrimidin-4-one] | 0.0175 µM
